Experimental data published in patent US9382265B2, “Oxazolidone compound, preparing method and application thereof” (SHANGHAI INSTITUTE OF MATERIA MEDICA, CHINESE ACADEMY OF …, priority 2013, dated 2016).

What was measured:
human recombinant FXa = biological target: T1, human recombinant FXa (Homo sapiens, UniProt P00742); experiment: FXa inhibitory activity assay (chromogenic substrate, 405 nm); format: biochemical; settings: inhibitory activity on FXa, preincubated at 37° C. for 10 mins
T1 construct: purchased Calbiochem; host or cells: human plasma
Method: Experimental principle and method: FXa cuts the Arg carboxyl end in the substrate N-Z-D-Arg-Gly-Arg-pDA in vitro and releases p-nitrophenylamine which has specific absorption at 405 nm wavelength. The amount of the […] generated is determined at 405 nm to evaluate the activity of the compound to inhibit the human recombinant FXa in vitro.
Human plasma coagulation factor Xa was purchased from Calbiochem; the substrate N-Z-D-Arg-Gly-Arg-pDA was purchased from chromogenic. The subject compound, enzyme and the reaction buffer were mixed and preincubated at 37° C. for 10 mins. The substrate was added. The absorption at 405 nm wavelength was measured continuously over 20 mins. At the same time, a blank control group (without enzyme, 100% inhibition rate) and a negative control group (replace the subject compound with DMSO, 0% inhibition rate) were set up. The reaction system was 100 μl (50 μl of Tris buffer, 10 μl of compound, 20 μl (0.027 U/ml) of enzyme, 20 μl (300 μM) of substrate). Each concentration of each sample was assayed in triplicate. The experiment was carried out for 2 times independently.

in vivo = experiment: in vivo
Method: Healthy male SD rats, body weight 200-220 g, randomly divided into 6 groups with each group 3-4 rats, were administered with the subject compound via intragastric administration and intravenous injection, respectively.
The subject compound was prepared with 5% DMSO/5% Twain 80/90% saline into solution for administration.
The rats were fasted for 12 hrs before experiment, free water-drinking, and were all fed 2 h after administration. Blood sampling time and sample treatment:
intragastric administration: 0.25, 0.5, 1.0, 2.0, 3.0, 4.0, 6.0, 8.0, and 24 h after administration;
intravenous administration: 5 min, 0.25, 0.5, 1.0, 2.0, 4.0, 6.0, 8.0, and 24 h after administration.
At the time points defined above, 0.3 ml of venous blood was taken from the posterior venous plexus of rats to heparinized tubes, centrifuged at 11000 rpm for 5 mins to separate the plasma, which was then frozen at −20° C. in a refrigerator.

[1] = tested on: rabbit sodium citrate anticoagulant plasma; experiment: In vitro anticoagulant activity: prothrombin time (PT); format: biochemical; settings: compound concentration that prolonged the PT time by 1 time vs blank control
Method: The experiment used […]-1 immunomagnetic single channel semi-automated blood coagulation analyzer to measure blood coagulation time. Principle: An excessive amount of tissue thromboplastin (infusion of preparations such as human brain, rabbit brain, placenta, and lung tissue) and calcium ion are added to the plasma to be tested, thereby converting prothrombin into thrombin, and the latter converts fibrinogen into fibrin. The time needed for plasma coagulation is observed as prothrombin time. This experiment is the most commonly used screening test for the evaluation of an extrinsic coagulation system. Test method: To the rabbit sodium citrate anticoagulant plasma (3.8% sodium citrate, 1:9 mixture) were added various concentrations of the compounds to be tested. PT reagents ([…], Beijing) were used to measure the prothrombin activation time. The compound concentration that prolonged the PT time by 1 time, when compared with the blank control, was recorded as PT2, thereby evaluating the anticoagulant activity of the compounds. Rabbit sodium citrate anticoagulant plasma (3.8% sodium citrate plasma, 1:9 mixture) was purchased from Guangzhou Ruite Bio company; […]-1 immunomagnetic single channel semi-automated blood coagulation analyzer and […] blood coagulation 3-item reagents were purchased from Beijing […] instrument company. […] Each concentration of each sample was assayed in 3-6 duplicate wells, and the experiment was independently carried out for 2-3 times.

[2] = tested on: rabbit sodium citrate anticoagulant plasma; experiment: In vitro anticoagulant activity: activated partial thromboplastin time (APTT); format: biochemical; settings: compound concentration that prolonged the APTT time by 1 time vs blank control
Method: The experiment used […]-1 immunomagnetic single channel semi-automated blood coagulation analyzer to measure blood coagulation time. Principle: At 37° C., using Kaolin to activate factors □ and □; using cephalin (partial thromboplastin) to replace platelet factor 3; and in the presence of Ca^2+, the time needed for the coagulation of plasma which lacks of platelet is observed as activated partial thromboplastin time. This experiment is a screening test which is sensitive and commonly used for the endogenous blood coagulation system. Test method: To the rabbit sodium citrate anticoagulant plasma (3.8% sodium citrate, 1:9 mixture) were added various concentrations of the compounds to be tested. APTT reagents ([…], Beijing) were used to measure the […] activation time. The compound concentration that prolonged the APTT time by 1 time, when compared with the blank control, was recorded as APTT2, thereby evaluating the anticoagulant activity of the compounds. Rabbit sodium citrate anticoagulant plasma (3.8% sodium citrate plasma, 1:9 mixture) was purchased from Guangzhou Ruite Bio company; […]-1 immunomagnetic single channel semi-automated blood coagulation analyzer and […] blood coagulation 3-item reagents were purchased from Beijing […] instrument company. […] Each concentration of each sample was assayed in 3-6 duplicate wells, and the experiment was independently carried out for 2-3 times.

thrombus formation = experiment: In vivo anticoagulant activity: electrically induced carotid artery thrombus formation time; set-up: species or system rat; settings: for ED50: Rattus norvegicus, po, male SD rats, intragastric administration, 3 mA electrical stimulation of left common carotid artery 1 h after administration, read-out: ED50 for prolonging the thrombus formation time
Method: The rats were fasted for 12 h, then weighted, and treated by intragastric administration. After 45 min, the rats were anesthetized with chloral hydrate (350 mg/kg), immobilized, and the left common carotid artery was exposed by surgery. The artery and the surrounding tissue were separated by plastic wrap. Electrical stimulation was started 1 h after intragastric administration. The stimulation electrode of the BT87-4 tester for experimental in vivo thrombus formation was placed at the end of the blood vessels proximal to the heart. 3 mA current was used for a 2 min of stimulation. The instrument started the timer automatically when the stimulation began. The stimulation switch was turned off when the stimulation ended. The stimulation electrode was removed, and a thermostat probe was placed at the end of the artery on the stimulation site, which end is distal to the heart. At the time of 600 seconds, the pointer of the thermostat panel was slowly moved to the position of 0. The time from the start of simulation to the alarm of the instrument was recorded as the time of blood vessel blockage (or the time of thrombus formation). If a drug has antithrombosis effect, the time of thrombus formation (time of blood vessel blockage) will be prolonged. IBM SPSS Statistics 20 software was used for the t test of the experimental data.

[3] = male, SD, rat, in vivo, iv, 3 mg/kg
[4] = male, SD, rat, in vivo, po, 10 mg/kg
[5] = male, SD, rat, in vivo, iv, 4.5 mg/kg
[6] = male, SD, rat, in vivo, po, 9 mg/kg

T1 sequence (P00742 235-488 limits assumed): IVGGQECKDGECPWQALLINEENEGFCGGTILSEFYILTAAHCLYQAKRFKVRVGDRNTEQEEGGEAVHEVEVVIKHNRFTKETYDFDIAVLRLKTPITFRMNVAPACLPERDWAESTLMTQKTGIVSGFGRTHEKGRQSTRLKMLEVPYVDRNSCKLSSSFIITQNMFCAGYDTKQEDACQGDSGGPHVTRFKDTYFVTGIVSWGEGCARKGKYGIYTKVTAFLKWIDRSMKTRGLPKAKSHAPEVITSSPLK
T1 sequence (P00742 41-179 partner limits assumed): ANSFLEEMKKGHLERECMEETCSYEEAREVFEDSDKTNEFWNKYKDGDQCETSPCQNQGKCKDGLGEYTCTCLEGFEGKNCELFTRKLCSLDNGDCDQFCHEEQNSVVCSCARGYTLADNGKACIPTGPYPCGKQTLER

## O=C(NC[C@@H]1OC(=O)N2c3ccc(N4CC[C@@H](F)CC4=O)cc3OC[C@@H]12)c1ccc(Cl)s1 [Compound 33, 5-chloro-N-(((3S,3aS)-7-((R)-4-fluro-2-oxopiperidin-1-yl)-1-oxo-1,3,3a,4-tetrahydrobenzo[b]oxazolo[3,4-d][1,4]oxazin-3-yl)methyl)-thiophene-2-carboxamide]
Human recombinant FXa
  IC50: 0.015 ± 0.0016 µM

## O=C(NC[C@H]1CN(c2ccc(N3CCOCC3=O)cc2)C(=O)O1)c1ccc(Cl)s1 [rivaroxaban, reference compound]
In vivo; male, SD, rat, in vivo
  F: 4.6%
In vivo; [3]
  CLz: 0.285 L/h/kg
  MRT: 0.88 h
  Vd: 0.25 L/kg
  half-life: 0.98 h
In vivo; [4]
  Cmax: 0.44 µg/mL
  MRT: 7.01 h
  Tmax: 0.56 h
  half-life: 4.64 h
In vivo; rat, in vivo, iv, 3 mg/kg
  AUC0-t: 10548 ngh/mL
  AUC0-∞: 10575 ngh/mL
In vivo; rat, in vivo, po, 10 mg/kg
  AUC0-t: 1608 ngh/mL
  AUC0-∞: 2242 ngh/mL
[1]
  PT2: 0.399 µM
[2]
  APTT2: 0.315 µM
Thrombus formation
  ED50: 4.53 mg/kg

## O=C(NC[C@@H]1OC(=O)N2c3ccc(N4CCOCC4=O)cc3OC[C@@H]12)c1ccc(Cl)cc1 [Compound 17, 4-chloro-N-(((3S,3aS)-1-oxo-7-(3-oxomorpholin-4-yl)-1,3,3a,4-tetrahydrobenzo[b]oxazolo[3,4-d][1,4]oxazin-3-yl)methyl)benzamide]
Human recombinant FXa
  IC50: 0.0122 ± 0.0105 µM

## NS(=O)(=O)c1ccccc1-c1ccc2c(c1)OC[C@H]1[C@H](CNC(=O)c3ccc(Cl)s3)OC(=O)N21 [Compound 35, 5-chloro-N-(((3S,3aS)-1-oxo-7-(2-aminosulfonylphenyl)-1,3,3a,4-tetrahydrobenzo[b]oxazolo[3,4-d][1,4]oxazin-3-yl)methyl)thiophene-2-carboxamide]
Human recombinant FXa
  IC50: 0.0196 ± 0.0169 µM

## O=C(NC[C@@H]1OC(=O)N2c3ccc(N4CCCCC4=O)cc3OC[C@@H]12)c1ccc(Cl)s1 [Compound 2, 5-chloro-N-(((3S,3aS)-1-oxo-7-(2-oxopiperidin-1-yl)-1,3,3a,4-tetrahydrobenzo[b]oxazolo[3,4-d][1,4]oxazin-3-yl)methyl)thiophene-2-carboxamide]
In vivo; male, SD, rat, in vivo
  F: 42.0%
In vivo; [5]
  CLz: 0.137 L/h/kg
  MRT: 3.04 h
  Vss: 0.406 L/kg
In vivo; [6]
  Cmax: 6.927 µg/mL
  MRT: 3.4 h
  Tmax: 0.67 h
In vivo; rat, in vivo, iv, 4.5 mg/kg
  AUC0-t: 31057 ngh/mL
  AUC0-∞: 33562 ngh/mL
In vivo; rat, in vivo, po, 9 mg/kg
  AUC0-t: 26119 ngh/mL
  AUC0-∞: 28527 ngh/mL
In vivo; rats, intravenous injection (4.5 mg/Kg)
  T1/2: 1.95 h
In vivo; rats, oral administration (9 mg/Kg)
  T1/2: 2.10 h
[1]
  PT2: 1.06 µM
[2]
  APTT2: 0.932 µM

## O=C(NC[C@@H]1OC(=O)N2c3ccc(N4CC[C@H](F)CC4=O)cc3OC[C@@H]12)c1ccc(Cl)s1 [Compound 34, 5-chloro-N-(((3S,3aS)-7-((S)-4-fluro-2-oxopiperidin-1-yl)-1-oxo-1,3,3a,4-tetrahydrobenzo[b]oxazolo[3,4-d][1,4]oxazin-3-yl)methyl)-thiophene-2-carboxamide]
Human recombinant FXa
  IC50: 0.0193 ± 0.00339 µM

## CS(=O)(=O)c1ccccc1-c1ccc2c(c1)OC[C@H]1[C@H](CNC(=O)c3ccc(Cl)s3)OC(=O)N21 [Compound 36, 5-chloro-N-(((3S,3aS)-7-(2-(methylsulfonyl)phenyl)-1-oxo-1,3,3a,4-tetrahydrobenzo[b]oxazolo[3,4-d][1,4]oxazin-3-yl)methyl)thiophene-2-carboxamide]
Human recombinant FXa
  IC50: 0.0122 ± 0.00408 µM

## O=C(NC[C@@H]1OC(=O)N2c3ccc(N4CCOCC4=O)cc3OC[C@@H]12)c1ccc(Cl)s1 [Compound 1, 5-chloro-N-(((3S,3aS)-1-oxo-7-(3-oxomorpholin-4-yl)-1,3,3a,4-tetrahydrobenzo[b]oxazolo[3,4-d][1,4]oxazin-3-yl)methyl)thiophene-2-carboxamide]
Human recombinant FXa
  IC50: 0.00225 ± 1e-05 µM
In vivo; male, SD, rat, in vivo
  F: 63.7%
In vivo; [3]
  CLz: 0.201 L/h/kg
  MRT: 1.03 h
  T1/2: 1.00 h
  Vss: 0.201 L/kg
In vivo; [4]
  Cmax: 11.901 µg/mL
  MRT: 2.23 h
  T1/2: 1.33 h
  Tmax: 0.75 h
In vivo; rat, in vivo, iv, 3 mg/kg
  AUC0-t: 15324 ngh/mL
  AUC0-∞: 15339 ngh/mL
In vivo; rat, in vivo, po, 10 mg/kg
  AUC0-t: 32529 ngh/mL
  AUC0-∞: 33044 ngh/mL
[1]
  PT2: 0.184 µM
[2]
  APTT2: 0.141 µM
Thrombus formation
  ED50: 2.97 mg/kg
Thrombus formation; ratio of ED50s for prolonging thrombus formation time, rats
  activity relative to rivaroxaban: 1.53 times
